What was measured:
Experiment in all cases: Eurofins kinase panel
Type in all cases: biochemical
Settings in all cases: read-out: Inhibition rate (%)
IKKβ(h) = target: T1, IKKβ(h) (Homo sapiens, UniProt O14920)
T1 construct: purchased Eurofins (KinaseProfiler)
T1 sequence (O14920 1-756): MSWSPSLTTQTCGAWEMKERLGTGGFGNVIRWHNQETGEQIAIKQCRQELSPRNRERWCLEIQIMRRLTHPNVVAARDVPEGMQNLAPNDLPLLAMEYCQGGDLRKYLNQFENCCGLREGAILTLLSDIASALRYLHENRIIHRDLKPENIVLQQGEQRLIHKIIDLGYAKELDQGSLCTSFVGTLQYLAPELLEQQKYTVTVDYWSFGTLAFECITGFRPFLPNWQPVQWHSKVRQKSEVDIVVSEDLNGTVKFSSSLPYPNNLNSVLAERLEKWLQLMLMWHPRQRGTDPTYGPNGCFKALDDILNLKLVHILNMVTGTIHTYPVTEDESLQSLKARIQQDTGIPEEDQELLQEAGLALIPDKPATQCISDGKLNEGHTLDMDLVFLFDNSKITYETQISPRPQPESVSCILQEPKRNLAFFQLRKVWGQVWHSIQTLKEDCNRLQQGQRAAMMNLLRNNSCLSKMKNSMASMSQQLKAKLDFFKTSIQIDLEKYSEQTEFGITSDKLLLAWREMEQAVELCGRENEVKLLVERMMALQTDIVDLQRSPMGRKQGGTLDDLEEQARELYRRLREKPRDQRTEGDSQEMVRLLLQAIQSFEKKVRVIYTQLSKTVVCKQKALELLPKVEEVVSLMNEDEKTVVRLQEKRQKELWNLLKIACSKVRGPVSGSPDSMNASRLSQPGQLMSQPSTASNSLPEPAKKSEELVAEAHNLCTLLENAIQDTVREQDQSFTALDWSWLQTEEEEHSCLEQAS

Pim-3(h) = target: T2, Pim-3(h) (Homo sapiens, UniProt Q86V86)
T2 construct: purchased Eurofins (KinaseProfiler)

mTOR/FKBP12(h) = target: T3, mTOR/FKBP12(h) (Homo sapiens, UniProt P42345)
T3 construct: purchased Eurofins (KinaseProfiler)
T3 sequence (P42345 1362-2549 limits assumed): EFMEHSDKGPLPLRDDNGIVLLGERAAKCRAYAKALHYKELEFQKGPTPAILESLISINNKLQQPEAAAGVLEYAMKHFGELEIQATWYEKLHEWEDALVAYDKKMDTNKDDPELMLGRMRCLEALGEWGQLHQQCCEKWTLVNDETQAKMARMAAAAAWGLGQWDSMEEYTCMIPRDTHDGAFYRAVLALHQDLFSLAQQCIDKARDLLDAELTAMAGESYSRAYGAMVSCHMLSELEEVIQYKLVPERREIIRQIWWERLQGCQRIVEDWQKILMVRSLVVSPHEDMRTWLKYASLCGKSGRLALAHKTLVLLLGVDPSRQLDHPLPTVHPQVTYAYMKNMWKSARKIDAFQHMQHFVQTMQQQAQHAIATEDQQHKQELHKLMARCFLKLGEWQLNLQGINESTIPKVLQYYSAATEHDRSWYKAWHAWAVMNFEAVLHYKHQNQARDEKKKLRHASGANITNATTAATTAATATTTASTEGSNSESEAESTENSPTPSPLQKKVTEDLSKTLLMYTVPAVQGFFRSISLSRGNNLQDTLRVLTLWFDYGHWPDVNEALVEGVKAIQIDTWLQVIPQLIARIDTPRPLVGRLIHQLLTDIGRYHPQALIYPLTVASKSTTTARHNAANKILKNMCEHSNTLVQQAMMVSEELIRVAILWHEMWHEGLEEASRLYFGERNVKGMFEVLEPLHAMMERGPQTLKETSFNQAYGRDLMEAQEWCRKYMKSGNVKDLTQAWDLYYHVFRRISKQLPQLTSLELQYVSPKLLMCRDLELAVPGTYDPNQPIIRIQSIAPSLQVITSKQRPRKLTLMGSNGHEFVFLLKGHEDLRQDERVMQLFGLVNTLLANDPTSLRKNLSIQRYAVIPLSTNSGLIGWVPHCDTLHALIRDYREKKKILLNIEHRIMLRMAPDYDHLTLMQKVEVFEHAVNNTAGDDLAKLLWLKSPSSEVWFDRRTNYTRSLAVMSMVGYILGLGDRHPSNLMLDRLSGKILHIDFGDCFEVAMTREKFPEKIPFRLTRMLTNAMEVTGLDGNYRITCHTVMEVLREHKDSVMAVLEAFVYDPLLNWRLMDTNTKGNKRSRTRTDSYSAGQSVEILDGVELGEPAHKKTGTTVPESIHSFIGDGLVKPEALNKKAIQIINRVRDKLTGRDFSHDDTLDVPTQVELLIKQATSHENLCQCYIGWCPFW

EphB3(h) = target: T4, EphB3(h) (Homo sapiens, UniProt P54753)
T4 construct: purchased Eurofins (KinaseProfiler)
T4 sequence (P54753 34-998): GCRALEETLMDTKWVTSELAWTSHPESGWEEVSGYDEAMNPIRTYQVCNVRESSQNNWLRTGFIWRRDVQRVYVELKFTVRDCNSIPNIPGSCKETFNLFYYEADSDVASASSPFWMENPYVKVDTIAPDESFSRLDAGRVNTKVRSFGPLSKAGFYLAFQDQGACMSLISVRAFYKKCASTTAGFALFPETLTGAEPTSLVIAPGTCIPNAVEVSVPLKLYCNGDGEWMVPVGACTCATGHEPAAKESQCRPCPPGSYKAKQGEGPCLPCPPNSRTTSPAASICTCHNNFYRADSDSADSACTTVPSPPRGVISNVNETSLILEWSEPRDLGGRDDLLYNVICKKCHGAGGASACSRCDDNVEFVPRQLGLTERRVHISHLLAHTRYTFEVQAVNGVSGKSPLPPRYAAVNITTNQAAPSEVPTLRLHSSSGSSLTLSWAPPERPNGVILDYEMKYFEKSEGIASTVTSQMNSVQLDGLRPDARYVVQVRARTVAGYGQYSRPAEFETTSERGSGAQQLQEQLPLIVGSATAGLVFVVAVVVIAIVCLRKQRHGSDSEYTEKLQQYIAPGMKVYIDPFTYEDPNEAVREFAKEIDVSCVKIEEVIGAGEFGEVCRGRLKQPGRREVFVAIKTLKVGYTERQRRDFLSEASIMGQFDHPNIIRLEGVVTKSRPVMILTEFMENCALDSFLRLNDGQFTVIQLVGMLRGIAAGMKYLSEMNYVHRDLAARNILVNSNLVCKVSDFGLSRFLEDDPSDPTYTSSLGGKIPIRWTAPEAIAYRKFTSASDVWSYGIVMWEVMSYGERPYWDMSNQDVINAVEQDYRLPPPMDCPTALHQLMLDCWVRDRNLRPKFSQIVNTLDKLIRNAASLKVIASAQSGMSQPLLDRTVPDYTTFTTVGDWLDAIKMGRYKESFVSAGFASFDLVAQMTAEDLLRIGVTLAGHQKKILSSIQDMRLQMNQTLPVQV

MAPKAP-K3(h) = target: T5, MAPKAP-K3(h) (Homo sapiens, UniProt Q16644)
T5 construct: purchased Eurofins (KinaseProfiler)
T5 sequence (Q16644 whole entry): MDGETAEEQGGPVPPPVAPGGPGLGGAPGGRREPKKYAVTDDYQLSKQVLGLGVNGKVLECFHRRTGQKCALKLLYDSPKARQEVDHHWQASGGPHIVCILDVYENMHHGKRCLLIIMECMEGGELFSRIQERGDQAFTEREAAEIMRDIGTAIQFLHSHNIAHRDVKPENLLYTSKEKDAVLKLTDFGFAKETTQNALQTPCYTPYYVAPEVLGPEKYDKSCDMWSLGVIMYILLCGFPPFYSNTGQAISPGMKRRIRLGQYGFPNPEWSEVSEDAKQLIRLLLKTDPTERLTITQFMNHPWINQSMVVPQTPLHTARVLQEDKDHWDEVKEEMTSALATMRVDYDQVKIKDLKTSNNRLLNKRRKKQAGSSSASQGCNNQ

MKK7β(h) = target: T6, MKK7β(h) (Homo sapiens, UniProt O14733)
T6 construct: purchased Eurofins (KinaseProfiler)
T6 sequence (O14733 1-419): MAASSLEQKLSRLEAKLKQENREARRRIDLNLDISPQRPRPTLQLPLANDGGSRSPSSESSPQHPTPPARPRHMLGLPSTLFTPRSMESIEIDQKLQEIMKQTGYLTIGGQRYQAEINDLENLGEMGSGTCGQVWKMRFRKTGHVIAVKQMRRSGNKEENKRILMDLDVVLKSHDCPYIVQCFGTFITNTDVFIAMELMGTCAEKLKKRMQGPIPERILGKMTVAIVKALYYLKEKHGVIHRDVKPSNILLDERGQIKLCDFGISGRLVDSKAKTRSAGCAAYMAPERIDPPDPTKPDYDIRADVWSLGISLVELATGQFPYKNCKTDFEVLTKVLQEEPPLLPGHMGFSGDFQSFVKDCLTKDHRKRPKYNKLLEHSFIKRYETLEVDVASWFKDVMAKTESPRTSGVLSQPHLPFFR

EGFR(T790M,L858R)(h) = target: T7, EGFR(T790M,L858R)(h) (Homo sapiens, UniProt P00533, L858R/T790M)
T7 construct: purchased Eurofins (KinaseProfiler)
T7 sequence (P00533 25-1210 T790M/L858R): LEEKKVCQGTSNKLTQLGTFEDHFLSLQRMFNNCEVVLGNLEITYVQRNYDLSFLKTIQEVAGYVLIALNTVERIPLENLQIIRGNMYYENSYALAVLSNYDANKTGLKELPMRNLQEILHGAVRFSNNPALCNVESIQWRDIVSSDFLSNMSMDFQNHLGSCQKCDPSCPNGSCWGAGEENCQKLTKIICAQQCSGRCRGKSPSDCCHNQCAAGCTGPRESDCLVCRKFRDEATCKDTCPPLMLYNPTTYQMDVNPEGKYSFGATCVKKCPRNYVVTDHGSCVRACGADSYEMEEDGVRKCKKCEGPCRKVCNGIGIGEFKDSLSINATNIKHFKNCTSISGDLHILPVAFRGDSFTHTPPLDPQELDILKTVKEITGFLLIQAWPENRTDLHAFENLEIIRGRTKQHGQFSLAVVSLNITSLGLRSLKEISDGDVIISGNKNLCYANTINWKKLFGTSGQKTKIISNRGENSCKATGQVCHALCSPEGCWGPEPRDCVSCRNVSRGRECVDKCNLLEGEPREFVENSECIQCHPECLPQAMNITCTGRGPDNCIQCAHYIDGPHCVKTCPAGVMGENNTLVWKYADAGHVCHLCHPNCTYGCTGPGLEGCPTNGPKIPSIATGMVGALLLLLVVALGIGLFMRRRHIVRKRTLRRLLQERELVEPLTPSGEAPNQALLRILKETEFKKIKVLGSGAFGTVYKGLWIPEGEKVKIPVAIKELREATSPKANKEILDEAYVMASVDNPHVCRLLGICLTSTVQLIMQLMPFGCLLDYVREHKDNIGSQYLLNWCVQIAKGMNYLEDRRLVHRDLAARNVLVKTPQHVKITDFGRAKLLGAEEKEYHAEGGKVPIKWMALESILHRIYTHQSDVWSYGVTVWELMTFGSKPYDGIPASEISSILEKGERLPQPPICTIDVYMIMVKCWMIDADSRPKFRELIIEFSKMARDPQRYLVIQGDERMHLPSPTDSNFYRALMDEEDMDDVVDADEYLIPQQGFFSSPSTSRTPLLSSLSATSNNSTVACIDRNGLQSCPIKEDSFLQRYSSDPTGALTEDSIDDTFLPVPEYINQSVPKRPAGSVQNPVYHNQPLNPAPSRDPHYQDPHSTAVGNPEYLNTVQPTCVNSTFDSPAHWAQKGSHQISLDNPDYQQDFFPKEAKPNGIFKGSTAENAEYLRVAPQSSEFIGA

COc1cc(OC)c(Cl)c(-c2ccc3c(NC(=O)c4ccc(N5CCNC(C)(C)C5)cc4)n[nH]c3n2)c1Cl [3D185] was tested, and the inhibition at 0.01 µM (IKKβ(h); 10 nM) was 0%, the inhibition at 0.1 µM (IKKβ(h); 100 nM) was -5% and the inhibition at 1 µM (IKKβ(h); 1000 nM) was 15%. For the same compound, the inhibition at 0.01 µM (Pim-3(h); 10 nM) was -5%, the inhibition at 0.1 µM (Pim-3(h); 100 nM) was -11% and the inhibition at 1 µM (Pim-3(h); 1000 nM) was -1%. The inhibition at 0.01 µM (mTOR/FKBP12(h); 10 nM) was 1%, the inhibition at 0.1 µM (mTOR/FKBP12(h); 100 nM) was 0% and the inhibition at 1 µM (mTOR/FKBP12(h); 1000 nM) was 2%. It also gave an inhibition at 0.01 µM (EphB3(h); 10 nM) of 13%, an inhibition at 0.1 µM (EphB3(h); 100 nM) of 1% and an inhibition at 1 µM (EphB3(h); 1000 nM) of 5%. It also gave an inhibition at 0.01 µM (MAPKAP-K3(h); 10 nM) of 8%, an inhibition at 0.1 µM (MAPKAP-K3(h); 100 nM) of 17% and an inhibition at 1 µM (MAPKAP-K3(h); 1000 nM) of 19%. For the same compound, the inhibition at 0.01 µM (MKK7β(h); 10 nM) was 9%, the inhibition at 0.1 µM (MKK7β(h); 100 nM) was -2% and the inhibition at 1 µM (MKK7β(h); 1000 nM) was 12%. For the same compound, the inhibition at 0.01 µM (EGFR(T790M,L858R)(h); 10 nM) was 6%, the inhibition at 0.1 µM (EGFR(T790M,L858R)(h); 100 nM) was 38% and the inhibition at 1 µM (EGFR(T790M,L858R)(h); 1000 nM) was 79%.

Source: PMC6704710, “Preclinical evaluation of 3D185, a novel potent inhibitor of FGFR1/2/3 and CSF-1R, in FGFR-dependent and macrophage-dominant cancer models” (Journal of Experimental & Clinical Cancer Research : CR, 2019)
